Source: patent US12662491B2 (Redona Therapeutics, Inc., priority 2020, dated 2026)

biological target: T1, Zcchc11 enzyme (Homo sapiens, UniProt Q5TAX3); experiment: TUTase assay (Zcchc11 assay, Lin28a-dependent polyuridylation of pre-let-7); format: biochemical; details: Lin28a-dependent Zcchc11 (Z11) TUTase activity; read-out: Potency Lin28a-dep Z11 IC50
T1 construct: made in house; host or cells: HEK293 cells (Zcchc11); E. coli Rosetta II (LIN28A)
T1 sequence (Q5TAX3 212-1420): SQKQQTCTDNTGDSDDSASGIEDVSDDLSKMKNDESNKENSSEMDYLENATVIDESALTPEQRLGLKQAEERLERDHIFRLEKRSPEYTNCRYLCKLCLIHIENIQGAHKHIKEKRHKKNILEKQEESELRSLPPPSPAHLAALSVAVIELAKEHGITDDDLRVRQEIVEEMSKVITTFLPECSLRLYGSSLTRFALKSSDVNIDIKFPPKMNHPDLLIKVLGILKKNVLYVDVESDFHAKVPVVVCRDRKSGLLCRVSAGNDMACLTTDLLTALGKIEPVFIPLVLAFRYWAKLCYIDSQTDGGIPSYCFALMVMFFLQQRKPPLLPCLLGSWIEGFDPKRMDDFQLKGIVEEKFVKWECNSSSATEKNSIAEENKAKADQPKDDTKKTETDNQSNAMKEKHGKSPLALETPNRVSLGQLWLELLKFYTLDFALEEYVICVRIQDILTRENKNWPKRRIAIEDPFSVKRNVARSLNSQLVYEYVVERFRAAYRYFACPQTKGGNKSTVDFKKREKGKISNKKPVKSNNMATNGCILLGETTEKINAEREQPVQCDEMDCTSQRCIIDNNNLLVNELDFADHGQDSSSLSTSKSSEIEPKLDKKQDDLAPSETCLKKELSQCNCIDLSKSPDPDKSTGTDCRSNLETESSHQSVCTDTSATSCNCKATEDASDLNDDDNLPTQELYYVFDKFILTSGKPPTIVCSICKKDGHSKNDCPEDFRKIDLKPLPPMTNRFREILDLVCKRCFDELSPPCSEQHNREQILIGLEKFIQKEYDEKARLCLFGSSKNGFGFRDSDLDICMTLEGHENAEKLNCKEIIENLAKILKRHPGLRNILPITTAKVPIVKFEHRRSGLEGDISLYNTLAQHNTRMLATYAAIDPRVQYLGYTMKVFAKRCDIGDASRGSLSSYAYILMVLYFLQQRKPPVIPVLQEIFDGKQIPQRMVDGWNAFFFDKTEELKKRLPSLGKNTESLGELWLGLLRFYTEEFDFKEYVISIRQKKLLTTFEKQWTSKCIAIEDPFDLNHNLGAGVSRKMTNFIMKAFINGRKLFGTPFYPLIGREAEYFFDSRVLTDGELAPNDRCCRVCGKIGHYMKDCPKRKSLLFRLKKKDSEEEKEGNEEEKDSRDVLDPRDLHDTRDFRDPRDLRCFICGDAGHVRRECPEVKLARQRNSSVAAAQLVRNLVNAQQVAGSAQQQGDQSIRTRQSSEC
How it was run: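 Polyuridylation measured as fluorescein loss when a rhodamine-labelled A20 probe anneals to U-tails added to fluorescein pre-let-7 (2 nM). Reaction: truncated Zcchc11 0.2 nM, E. coli-made LIN28A 10 nM, UTP 5 uM, HEPES pH 7.3, room temperature. Initial rates fitted to four-parameter IC50.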

| Compound | IC50 |
| --- | --- |
| O=C(O)c1cn(-c2ccc(O)cc2C(F)(F)F)c2cc(N3CCC[C@@H]3COc3ccccn3)c(F)cc2c1=O [Compound 164, (R)-6-fluoro-1-(4-hydroxy-2-(trifluoro-methyl)phenyl)-4-oxo-7-(2-((pyridin-2-yloxy)methyl)pyrrolidin-1-yl)-1,4-dihydro-quinoline-3-carboxylic acid] | 10 to 50 µM |
| O=C(O)c1cn(C2CC(CO)C2)c2cc(N3CCC[C@@H]3COc3ccccn3)c(F)cc2c1=O (stereo partly drawn) [Compound 165, (R)-6-fluoro-1-(3-(hydroxy-methyl)cyclo-butyl)-4-oxo-7-(2-((pyridin-2-yloxy)methyl)pyrrolidin-1-yl)-1,4-dihydro-quinoline-3-carboxylic acid] | 10 to 50 µM |
| CN(C)C1CN(c2ccc(-n3cc(C(=O)O)c(=O)c4cc(Cl)c(N5CCC6CC65COc5ncccc5Cl)cc43)cn2)C1 (stereo not shown) [Compound 170, 6-chloro-7-(1-(((3-chloropyridin-2-yl)oxy)methyl)-2-azabicyclo [3.1.0]hexan-2-yl)-1-(6-(3-(dimethyl-amino)azetidin-1-yl)pyridin-3-yl)-4-oxo-1,4-dihydro-quinoline-3-carboxylic acid] | ≤ 1 µM |
| O=C(O)c1cn(-c2ccc(Cl)c(O)c2)c2cc(N3CCC[C@@H]3COc3ncccc3Cl)ccc2c1=O [Compound 171, (R)-1-(4-chloro-3-hydroxy-phenyl)-7-(2-(((3-chloropyridin-2-yl)oxy)methyl)pyrrolidin-1-yl)-4-oxo-1,4-dihydro-quinoline-3-carboxylic acid] | > 50 µM |
| CN(C)C1CN(c2ccc(-n3cc(C(=O)O)c(=O)c4cc(Cl)c(N5CCC[C@@H]5COc5nccn6ccnc56)cc43)cn2)C1 [Compound 172, (R)-6-chloro-1-(6-(3-(dimethyl-amino)azetidin-1-yl)pyridin-3-yl)-7-(2-((imidazo [1,2-a]pyrazin-8-yloxy)methyl)pyrrolidin-1-yl)-4-oxo-1,4-dihydro-quinoline-3-carboxylic acid] | ≤ 1 µM |
| CN(C)C1CN(c2ccc(-n3cc(C(=O)O)c(=O)c4cc(Cl)c(N5CCC[C@@H]5COc5nnccc5Cl)cc43)cn2)C1 [Compound 173, (R)-6-chloro-7-(2-(((4-chloro-pyridazin-3-yl)oxy)methyl)pyrrolidin-1-yl)-1-(6-(3-(dimethyl-amino)azetidin-1-yl)pyridin-3-yl)-4-oxo-1,4-dihydro-quinoline-3-carboxylic acid] | ≤ 1 µM |

Next, values leading:

| IC50 | Compound |
| --- | --- |
| ≤ 1 µM | O=C(O)c1cn(-c2ccc(O)cc2)c2cc(N3CCC[C@@H]3COc3ccccn3)c(F)cc2c1=O [Compound 166, (R)-6-fluoro-1-(4-hydroxy-phenyl)-4-oxo-7-(2-((pyridin-2-yloxy)methyl)pyrrolidin-1-yl)-1,4-dihydro-quinoline-3-carboxylic acid] |
| ≤ 1 µM | CN(C)C1CN(c2ccc(-n3cc(C(=O)O)c(=O)c4cc(Cl)c(N5CCC[C@@H]5COc5ncncc5Cl)cc43)cn2)C1 [Compound 167, (R)-6-chloro-7-(2-(((5-chloro-pyrimidin-4-yl)oxy)methyl)pyrrolidin-1-yl)-1-(6-(3-(dimethyl-amino)azetidin-1-yl)pyridin-3-yl)-4-oxo-1,4-dihydro-quinoline-3-carboxylic acid] |
| ≤ 1 µM | Cc1nn(C)cc1-n1cc(C(=O)O)c(=O)c2cc(Cl)c(N3CCC[C@@H]3COc3ncccc3Cl)cc21 [Compound 168, (R)-6-chloro-7-(2-(((3-chloropyridin-2-yl)oxy)methyl)pyrrolidin-1-yl)-1-(1,3-dimethyl-1H-pyrazol-4-yl)-4-oxo-1,4-dihydro-quinoline-3-carboxylic acid] |
| ≤ 1 µM | CN(C)C1CN(c2ccc(-n3cc(C(=O)O)c(=O)c4cc(C#N)c(N5CCC[C@@H]5COc5ncccc5F)cc43)cn2)C1 [Compound 169, (R)-6-cyano-1-(6-(3-(dimethyl-amino)azetidin-1-yl)pyridin-3-yl)-7-(2-(((3-fluoropyridin-2-yl)oxy)methyl)pyrrolidin-1-yl)-4-oxo-1,4-dihydro-quinoline-3-carboxylic acid] |
